The results in this text go back to patent US20230295235A1, “COMPOUNDS TARGETING ALPHA4-BETA7 INTEGRIN” (ZEALAND PHARMA A/S, priority 2020, published 2023).

The test has as its system DSS induced ulcerative colitis. Description: DSS induced chronic colitis (ulcerative colitis) mouse model. Format: in vivo. The procedure: The current study was conducted in the mice model of dextran Sodium Sulfate (DSS) induced ulcerative colitis (UC). DSS induces chronic colitis in experimental animals when given orally in drinking water for 7 days followed by no DSS in drinking water. Chronic intestinal inflammation is associated with body weight loss, diarrhea, blood in the stool and the infiltration of leucocytes from the blood to intestinal tissue. Among those cells, subpopulations of T lymphocytes such as Th1 and Th17 play an important role in the initiation and chronicity of inflammation. Trafficking of T cells from blood to target tissue is a complex process that is controlled by molecularly distinct adhesion and signaling steps. As such, the α4β7 and MAdCAM-1 adhesion mechanism may be closely involved in lymphocyte trafficking to the site of inflammation in the gut.
Evaluation of the therapeutic potential of the compound of Example 1 (cpd 1) in a mouse model of Dextran Sodium Sulfate (DSS) induced ulcerative colitis (UC)
Female C57BI/6 mice (Charles River, St-Constant, Qc), weighting 15-20 g at delivery were used for this study. Following arrival in the animal facility, all animals were subjected to a general health evaluation. […]
Specific symptoms associated to UC were scored based on the severity of each particular symptoms: • 1- blood in stool (negative hemoccult, positive hemoccult, visible blood traces in stool, rectal bleeding); • 2- stool consistency (normal, soft, diarrhea); • 3- body weight loss (score 0: 0-1 %; 1: 1.5-5%; 2: 5.5-10%; 3: 10.5-15 %; 4: 15.5-20 %; 5: >20%). […]
Once the mouse was euthanized, the colon was collected, and its length was measured. Lesion length was also measured. Colon lesions was scored macroscopically based on inflammation, thickening and vascularization to give an overall macroscopic inflammation score of each animal in the study. […]
Statistical differences among groups were determined using a two-way ANOVA, followed by a post-hoc analysis, using Tukey’s multiple comparison test, to compare each group to the DSS+vehicle control group. […]

For the compound `CC(C)C[C@@H]1NC(=O)c2ccc(-c3ccc(N4CCN(C(=O)c5ccccc5-c5ccccc5C(=O)N5CCN(c6ccc(-c7ccc8cc7CNC(=O)[C@@H]7CCCN7[C@H](C(=O)NC(C)(C)C)[C@H](C)NC(=O)[C@H]([C@@H](C)O)NC(=O)[C@H](CC(=O)O)NC(=O)[C@H](CC(C)C)NC8=O)cc6)CC5)CC4)cc3)c(c2)CNC(=O)[C@@H]2CCCN2[C@H](C(=O)NC(C)(C)C)[C@H](C)NC(=O)[C@H]([C@@H](C)O)NC(=O)[C@H](CC(=O)O)NC1=O` [Example 1, 2,2′-((S,S,S,S,S,S,1^2,8S,11S,14S,17S,18S)-((([1,1′-Biphenyl]-2,2′-Dicarbonyl)-Bis(Piperazine-4,1-Diyl))Bis(4,1-Phenylene))Bis(18-(Tert-Butylcarbamoyl)-14-((R)-1-Hydroxyethyl)-8-Isobutyl-17-Methyl-2,6,9,12,15-Pentaoxo-3,7,10,13,16-Pentaaza-1(2,1)-Pyrrolidina-5(1,3)-Benzenacyclooctadecaphane-5^6,11-Diyl))-Diacetic Acid], under “100 mg/kg p.o. once daily day 0-14, DSS mice, vs DSS + vehicle”, the “effect on DAI score” value is reported as “did not lead to any beneficial effect”. The “macroscopic inflammation score, % less than DSS + vehicle” value (100 mg/kg p.o. once daily day 0-14, colon at day 14, significant difference) is on record as “around 30%”. For the same compound, the “MPO U/g colon protein, % less than DSS + vehicle” value (100 mg/kg p.o. once daily day 0-14, medio-distal colon, ELISA, not statistically significant) is listed as “approximately 49%”.
